Results from patent US9766236B2, “Taste receptor internalization assay” (PepsiCo, Inc., priority 2013, dated 2017).
Residues, ends and D or L forms follow the SMILES beside them.

What was measured:
T2R14 = target: T1, T2R14 (Homo sapiens, UniProt Q9NYV8); experiment: High-content imaging ring assay for T2R14 internalization in NCI-H716 cells; assay type: cell-based; conditions: compounds used at 10 mM, 37° C., immunofluorescence
T1 construct: These cells express the bitter receptors T2R1, T2R3, T2R4, T2R5, T2R7, T2R8, T2R9, T2R10, T2R13, T2R14; endogenous in cells; host or cells: NCI-H716 (ATCC CCL-251)
T1 sequence (Q9NYV8 1-317): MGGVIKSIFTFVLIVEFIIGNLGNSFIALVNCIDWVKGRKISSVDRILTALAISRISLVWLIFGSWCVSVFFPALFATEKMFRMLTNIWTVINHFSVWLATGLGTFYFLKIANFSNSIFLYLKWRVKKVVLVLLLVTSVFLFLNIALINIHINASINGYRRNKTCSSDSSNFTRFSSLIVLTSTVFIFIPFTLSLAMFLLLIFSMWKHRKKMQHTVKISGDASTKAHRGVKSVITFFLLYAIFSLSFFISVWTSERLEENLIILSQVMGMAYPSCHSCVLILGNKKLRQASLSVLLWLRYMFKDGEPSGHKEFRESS
From the text: The internalization assay disclosed herein, also called a “ring assay,” detects localization of receptors using antibodies specific for the receptors. A first detectable label, specific for nucleic acid (e.g., DAPI, Hoechst 33342, DRAQ5, DRAQ7, DRAQ9), is used to label cell nuclei; this labeling provides information such as the number of cells in a field and differentiates between the nuclear (e.g., DAPI-positive) and cytoplasmic (e.g., DAPI-negative) compartments. Antibodies which specifically bind to a taste receptor are used in conjunction with secondary antibodies conjugated with a second detectable label which can be differentiated from the first detectable label (e.g., FITC, TRITC, Cy3, Cy5, Alexa 350, 488, 546, 555, 568, 594, 633, 647). Diffuse circle staining is observed in the absence of a stimulus (e.g., in the presence of buffer alone). In the presence of a stimulus, however, a “ring” of internalized receptors is visualized. In some embodiments, ring-positive cells are calculated by correlation coefficient for pixel values of the nuclear and receptor signals. The extent of internalization can be expressed as percentage (mean±SD) of cells showing a continuous ring staining from multiple (e.g., quadruplicate) data points. NCI-H716 cell were grown in RPMI1690 media supplemented with 10% fetal bovine serum. Cells were seeded at density of 20,000 cells/well on PDL-coated 384-well plates. […] Alexa 488-conjugated antibodies and Hoechst 33342 were from Life Technology. 20,000 cells in PBS+10% FBS were plated on clear-bottom, PDL-coated, black-wall 384-well plates suitable for HCA imaging. For […] studies compounds were added to the cells. Stock solutions of all compounds were diluted in dimethyl sulfoxide (DMSO) and used at 10 mM. Control groups of cells also received DMSO (0.1%) in medium. NCI-H716 cells were stimulated with RebA (Purecircle) at 10 mM for indicating time points at 37° C. The cells were then fixed and processed for indirect immunofluorescence with antibodies against bitter receptor […]. All images were acquired with a 20× objective using ImageXpress Micro automated microscope. Hoechst 33342 staining is pseudo-colored blue and antibody specific staining is pseudo-colored green. […] The extent of internalization is expressed as the percentage (means±S.D.) of cells showing a continuous “Ring” staining from quadruplicate data points. Recycling of […] receptor correlates with decreased number of “Ring”-positive cells. Statistical analyses and graphs were made with Tibco Spotfire or GraphPad Prism.

GLUT4 = target: T2, GLUT4 (Homo sapiens, UniProt P14672); experiment: High-content imaging ring assay for GLUT4 internalization in NCI-H716 cells; assay type: cell-based; conditions: endogenous GLUT4, FIG. 4B
T2 construct: we tested internalization of endogenous GLUT4 in NCI-H716 cells; endogenous in cells; host or cells: NCI-H716 (ATCC CCL-251)
T2 sequence (P14672 1-509): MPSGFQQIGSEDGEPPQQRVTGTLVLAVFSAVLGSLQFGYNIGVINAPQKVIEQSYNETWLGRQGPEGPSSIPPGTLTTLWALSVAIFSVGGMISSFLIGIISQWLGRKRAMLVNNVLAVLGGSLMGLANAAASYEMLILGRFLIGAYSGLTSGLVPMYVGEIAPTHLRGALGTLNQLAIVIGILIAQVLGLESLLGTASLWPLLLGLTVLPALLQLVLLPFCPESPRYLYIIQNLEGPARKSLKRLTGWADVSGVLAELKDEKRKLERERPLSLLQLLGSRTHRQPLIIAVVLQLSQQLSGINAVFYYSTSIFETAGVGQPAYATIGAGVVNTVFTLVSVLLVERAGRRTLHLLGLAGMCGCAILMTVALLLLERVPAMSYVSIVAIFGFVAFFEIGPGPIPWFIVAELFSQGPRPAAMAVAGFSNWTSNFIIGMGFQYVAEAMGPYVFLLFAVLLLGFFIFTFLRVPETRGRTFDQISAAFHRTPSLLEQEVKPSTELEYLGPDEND
From the text: The internalization assay disclosed herein, also called a “ring assay,” detects localization of receptors using antibodies specific for the receptors. A first detectable label, specific for nucleic acid (e.g., DAPI, Hoechst 33342, DRAQ5, DRAQ7, DRAQ9), is used to label cell nuclei; this labeling provides information such as the number of cells in a field and differentiates between the nuclear (e.g., DAPI-positive) and cytoplasmic (e.g., DAPI-negative) compartments. Antibodies which specifically bind to a taste receptor are used in conjunction with secondary antibodies conjugated with a second detectable label which can be differentiated from the first detectable label (e.g., FITC, TRITC, Cy3, Cy5, Alexa 350, 488, 546, 555, 568, 594, 633, 647). Diffuse circle staining is observed in the absence of a stimulus (e.g., in the presence of buffer alone). In the presence of a stimulus, however, a “ring” of internalized receptors is visualized. In some embodiments, ring-positive cells are calculated by correlation coefficient for pixel values of the nuclear and receptor signals. The extent of internalization can be expressed as percentage (mean±SD) of cells showing a continuous ring staining from multiple (e.g., quadruplicate) data points.
To explore further the role of GLUT4 in signaling by artificial sweeteners, we tested internalization of endogenous GLUT4 in NCI-H716 cells.

| Compound | T2R14 internalization ("Ring"-positive cells) (T2R14; FIG. 2) | T2R14 internalization ("Ring"-positive cells) (T2R14; FIG. 2, listed as Reb A) | GLUT4 internalization ("Ring"-positive cells) (GLUT4) |
| --- | --- | --- | --- |
| C=C1C[C@@]23CC[C@H]4[C@@](C)(CCC[C@@]4(C)C(=O)O[C@@H]4O[C@H](CO)[C@@H](O)[C@H](O)[C@H]4O)[C@@H]2CC[C@]1(O[C@@H]1O[C@H](CO)[C@@H](O)[C@H](O[C@@H]2O[C@H](CO)[C@@H](O)[C@H](O)[C@H]2O)[C@H]1O[C@@H]1O[C@H](CO)[C@@H](O)[C@H](O)[C@H]1O)C3 [RebA] | T2R14 internalization increases | induces T2R14 internalization | – |
| C=C1C[C@@]23CC[C@H]4[C@@](C)(CCC[C@@]4(C)C(=O)O[C@@H]4O[C@H](CO)[C@@H](O)[C@H](O)[C@H]4O[C@@H]4O[C@H](CO)[C@@H](O)[C@H](O)[C@H]4O)[C@@H]2CC[C@]1(O[C@@H]1O[C@H](CO)[C@@H](O)[C@H](O[C@@H]2O[C@H](CO)[C@@H](O)[C@H](O)[C@H]2O)[C@H]1O[C@@H]1O[C@H](CO)[C@@H](O)[C@H](O)[C@H]1O)C3 [RebD] | internalization was not observed | – | – |
| CC1=CC(=O)[N-]S(=O)(=O)O1.[K+] [Ace-K] | – | – | GLUT4 internalization increased |
| COC(=O)[C@H](Cc1ccccc1)NC(=O)[C@@H](N)CC(=O)O [aspartame] (H-Asp-Phe-OMe) | – | – | GLUT4 internalization increased |
| C=C1C[C@@]23CC[C@H]4[C@@](C)(CCC[C@@]4(C)C(=O)O[C@@H]4O[C@H](CO)[C@@H](O)[C@H](O)[C@H]4O)[C@@H]2CC[C@]1(O[C@@H]1O[C@H](CO)[C@@H](O)[C@H](O[C@@H]2O[C@H](CO)[C@@H](O)[C@H](O)[C@H]2O)[C@H]1O[C@@H]1O[C@@H](C)[C@H](O)[C@@H](O)[C@H]1O)C3 [RebC] | T2R14 internalization increases | – | – |
| O=C1NS(=O)(=O)c2ccccc21 [saccharine] | – | – | GLUT4 internalization increased |
